Assay results reported in patent publication US6624163B2, “Benzothiazole derivatives” (Hoffman-La Roche Inc., priority 2001, dated 2003).

Molecular target: T1, human adenosine A2A receptor (Homo sapiens, UniProt P29274)
T1 construct: expressed in transfected cells; host or cells: CHO cells, semliki forest virus expression system; membrane preparation
Assay: [3H]-SCH-58261 binding assay, human adenosine A2A receptor expressed in CHO cell membranes (SPA)
Details: [3H]-SCH-58261 (1 nM) displacement; recombinant receptor in CHO cell membranes; Ki by Cheng-Prussoff from IC50; read-out: hA2 (pKi) (converted)
Procedure: Human Adenosine A2A Receptor
The human adenosine A2A receptor was recombinantly expressed in chinese hamster ovary (CHO) cells using the semliki forest virus expression system. Cells were harvested, washed twice by centrifugation, homogenised and again washed by centrifugation. The final washed membrane pellet was suspended in a Tris (50 mM) buffer containing 120 mM NaCl, 5 mM KCl, 2 mM CaCl2 and 10 mM MgCl2 (pH 7.4) (buffer A). The [^3H]-SCH-58261 (Dionisotti et al., 1997, Br J Pharmacol 121, 353; 1 nM) binding assay was carried out in 96-well plates in the presence of 2.5 μg of membrane protein, 0.5 mg of Ysi-poly-1-lysine SPA beads and 0.1 U adenosine deaminase in a final volume of 200 μl of buffer A. Non-specific binding was defined using xanthine amine congener (XAC; 2 μM). Compounds were tested at 10 concentrations from 10 μM −0.3 nM. All assays were conducted in duplicate and repeated at least two times. Assay plates were incubated for 1 hour at room temperature before centrifugation and then bound ligand determined using a Packard Topcount scintillation counter. IC50 values were calculated using a non-linear curve fitting program and Ki values calculated using the Cheng-Prussoff equation.

T1 sequence (P29274 whole entry): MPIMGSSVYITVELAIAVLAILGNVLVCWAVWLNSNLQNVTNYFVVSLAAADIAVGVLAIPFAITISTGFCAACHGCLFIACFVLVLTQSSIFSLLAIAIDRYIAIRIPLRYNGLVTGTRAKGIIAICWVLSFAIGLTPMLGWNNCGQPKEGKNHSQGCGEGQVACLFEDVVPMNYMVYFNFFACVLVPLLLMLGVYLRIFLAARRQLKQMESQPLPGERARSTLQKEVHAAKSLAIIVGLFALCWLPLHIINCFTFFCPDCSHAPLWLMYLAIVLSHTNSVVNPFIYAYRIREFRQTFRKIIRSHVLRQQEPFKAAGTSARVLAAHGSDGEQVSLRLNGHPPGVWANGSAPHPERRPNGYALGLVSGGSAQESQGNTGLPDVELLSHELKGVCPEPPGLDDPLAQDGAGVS

Row | Compound | Ki [nM]
1 | COc1ccc(N2CCOCC2)c2sc(NC(=O)c3ccc(CN(C)C(=O)C4CCC4)cc3)nc12 [Example 5, 4-[(Cyclobutanecarbonyl-methyl-amino)-methyl]-N-(4-methoxy-7-morpholin-4-yl-benzothiazol-2-yl)-benzamide] | 0.794
2 | COCC(=O)NCc1ccc(C(=O)Nc2nc3c(OC)ccc(N4CCOCC4)c3s2)cc1 [Example 1, 4-[(2-Methoxy-acetylamino)-methyl]-N-(4-methoxy-7-morpholin-4-yl-benzothiazol-2-yl)-benzamide] | 0.794
3 | COc1ccc(N2CCOCC2)c2sc(NC(=O)c3ccc(CNC(=O)C4CCC4)cc3)nc12 [Example 11, 4-[(Cyclobutanecarbonyl-amino)-methyl]-N-(4-methoxy-7-morpholin-4-yl-benzothiazol-2-yl)-benzamide] | 0.501
4 | COc1ccc(N2CCOCC2)c2sc(NC(=O)c3ccc(CNC(=O)C4CC4)cc3)nc12 [Example 9, 4-[(Cyclopropanecarbonyl-amino)-methyl]-N-(4-methoxy-7-morpholin-4-yl-benzothiazol-2-yl)-benzamide] | 1
5 | COc1ccc(N2CCOCC2)c2sc(NC(=O)c3ccc(CN(C)C(=O)CN4CCCC4)cc3)nc12 [Example 19, N-(4-Methoxy-7-morpholin-4-yl-benzothiazol-2-yl)-4-{[methyl-(pyrrolidin-1-yl-acetyl)-amino]-methyl}-benzamide] | 1.58
6 | COc1ccc(N2CCOCC2)c2sc(NC(=O)c3ccc(CNC(C)=O)cc3)nc12 [Example 12, 4-(Acetylamino-methyl)-N-(4-methoxy-7-morpholin-4-yl-benzothiazol-2-yl)-benzamide] | 0.794

The remaining lines, values ahead:

Row | Ki [nM] | Compound
7 | 1.26 | COc1ccc(N2CCOCC2)c2sc(NC(=O)c3ccc(CN(C)C(=O)CN(C)C)cc3)nc12 [Example 15, 4-[(Dimethylaminoacetyl-methyl-amino)-methyl]-N-(4-methoxy-7-morpholin-4-yl-benzothiazol-2-yl)-benzamide]
8 | 1 | CCC(=O)NCc1ccc(C(=O)Nc2nc3c(OC)ccc(N4CCOCC4)c3s2)cc1 [Example 7, N-(4-Methoxy-7-morpholin-4-yl-benzothiazol-2-yl)-4-(propionylamino-methyl)-benzamide]
9 | 1.26 | CCC(=O)N(CC)Cc1ccc(C(=O)Nc2nc3c(OC)ccc(N4CCOCC4)c3s2)cc1 [Example 14, 4-[(Ethyl-propionyl-amino)-methyl]-N-(4-methoxy-7-morpholin-4-yl-benzothiazol-2-yl)-benzamide]
10 | 0.631 | COc1ccc(N2CCOCC2)c2sc(NC(=O)c3ccc(CN(C)C(=O)C4CC4)cc3)nc12 [Example 4, 4-[(Cyclopropanecarbonyl-methyl-amino)-methyl]-N-(4-methoxy-7-morpholin-4-yl-benzothiazol-2-yl)-benzamide]
11 | 1 | COc1ccc(N2CCOCC2)c2sc(NC(=O)c3ccc(CN(C)C(C)=O)cc3)nc12 [Example 10, 4-[(Acetyl-methyl-amino)-methyl]-N-(4-methoxy-7-morpholin-4-yl-benzothiazol-2-yl)-benzamide]
12 | 1.26 | COCC(=O)N(C)Cc1ccc(C(=O)Nc2nc3c(OC)ccc(N4CCOCC4)c3s2)cc1 [Example 2, 4-[(Methoxyacetyl-methyl-amino)-methyl]-N-(4-methoxy-7-morpholin-4-yl-benzothiazol-2-yl)-benzamide]
13 | 0.631 | CCC(=O)N(C)Cc1ccc(C(=O)Nc2nc3c(OC)ccc(N4CCOCC4)c3s2)cc1 [Example 6, N-(4-Methoxy-7-morpholin-4-yl-benzothiazol-2-yl)-4-[(methyl-propionyl-amino)-methyl]-benzamide]

Test system: not given
Assay: not given
Details: not given

Row | melting point [°C] | Compound
14 | 171 to 173 | COCCN(C)CC(=O)N(C)Cc1ccc(C(=O)Nc2nc3c(OC)ccc(N4CCOCC4)c3s2)cc1 [Example 18, 4-[({[(2-Methoxy-ethyl)-methyl-amino]-acetyl}-methyl-amino)-methyl]-N-(4-methoxy-7-morpholin-4-yl-benzothiazol-2-yl)-benzamide]
15 | 114 to 116 | COc1ccc(N2CCOCC2)c2sc(NC(=O)c3ccc(CN(C)C(=O)CN4CCCC4)cc3)nc12 [Example 19, N-(4-Methoxy-7-morpholin-4-yl-benzothiazol-2-yl)-4-{[methyl-(pyrrolidin-1-yl-acetyl)-amino]-methyl}-benzamide]
